# Like-named read-outs stand apart in the source and are kept apart here.
# Assays:
# plasma triglycerides [1] = assay: plasma TG induction in C57BL/6 mice vs plasma compound concentration (log-linear model); assay type: in vivo, mouse; conditions: for TG induction in plasma m (scaling factor) / TG induction in plasma C2, drug concentration corresponding to a twofold increase in TG levels: (% RSE); for TG induction in plasma Attributed class: mouse, in vivo
# Procedure: Male C57BL/6JOlaHsd mice were retrieved from Harlan Laboratories (Horst, The Netherlands) around 7 weeks of age. […] Mice were given ad libitum access to water and standard rodent chow during the studies.
# Compounds were given daily by oral gavage, 5 ml kg^−1, at doses ranging from 0.1 to 100 μmol kg^−1 of body weight for 4 days. Animals were terminated 3 h after the last dose.
# (§1) At termination, the whole-blood volume was drawn from isoflurane-anesthetized mice via an incision in the carotid artery into EDTA blood tubes (S-Monovette®, EDTA KE/1.3 mL, Sarstedt, Nümbrecht, Germany or BD Microtainers®, Benton, Dickinson and Company, Franklin Lakes, New Jersey, USA). Blood samples were placed on ice and centrifuged within an hour (15 min, 2500 × g, 4 °C or 5 min, 16000 × g, 4 °C). The plasma was then dispensed in separate tubes and kept at −80 °C for later analysis of compound concentration and TG levels. For the analysis of intestinal Abca1 transcript levels, a 3–5-mm long segment of the duodenum was excised and cleared from any gut contents. Tissues were instantly snap frozen in liquid nitrogen and stored at −80 °C.
# Plasma triglyceride levels were analyzed by using the Triglycerides/Glycerol Blanked reagent kit (Roche Diagnostics GMBH, Mannheim, Germany). Samples were measured on an ABX Pentra 400 instrument (Horiba Medical, Irvine, California, USA) or Cobas Mira plus instrument (Roche Diagnostics Corporation, Indianapolis, USA). […] Absorbance was measured by using a Tecan Infinite M200 plate reader (Tecan Austria GmbH, Salzburg, Austria).
# About 25 µL of plasma was precipitated with 150 µL of cold acetonitrile containing 0.2% formic acid. […] Sample analysis was performed by using a reversed-phase high-pressure liquid chromatography system coupled to a Quattro Ultima triple-quadrupole mass spectrometer (Waters, UK). A rapid 2-min 4–90% (vol/vol) acetonitrile (containing 0.2% formic acid) gradient was used for chromatographic separation.
# To rank the compounds, the drug concentration (C2) needed to generate a twofold increase in plasma TG was estimated by rearranging Eq. (2):3 C2=exp^2fold−BL−1/m^1/γ
# plasma triglycerides [2] = tested on: plasma triglycerides; set-up: method as in van der Hoorn et al. 2011; conditions: AZ876 high dose 20 µmol·kg−1·day−1, GW3965 at a similar dose; ref van der Hoorn et al. 2011; cited from earlier work
# Abca1 mRNA in intestine = assay: intestinal Abca1 mRNA induction in C57BL/6 mice (Emax model); assay type: in vivo, mouse; conditions: for ED50: Mus musculus
# Procedure: All procedures involving animals were conducted in accordance with accepted standards of good animal practice and approved by the respective local animal ethics committees (Gothenburg region Local Ethics Review Committee on Animal experiments and University of Virginia Animal Care and Use Committee). Male C57BL/6JOlaHsd mice were retrieved from Harlan Laboratories (Horst, The Netherlands) around 7 weeks of age. In the studies with BMS-852907, male 8-week C57BL/6J mice (Jackson Laboratories) were used. Mice were given ad libitum access to water and standard rodent chow during the studies.
# Solid compounds were solubilized in PEG400/Ethanol/Solutol/Water solution (36.3/9.1/4.6/50%). Compounds were given daily by oral gavage, 5 ml kg^−1, at doses ranging from 0.1 to 100 μmol kg^−1 of body weight for 4 days. Animals were terminated 3 h after the last dose.
# as §1
# Snap-frozen intestinal tissues were quickly disrupted in QIAzol® (Qiagen, Hilden, Germany) or PureZOL™ (Bio-Rad Laboratories, Hercules, California, USA) by using a bead tissue homogenizer. Lysates were mixed with chloroform and centrifuged at 6000 × g for 15 min at 4 °C. Total RNA was purified from the upper aqueous phase on the ABI PRISM™ 6100 Nucleic Acid PrepStation (Applied Biosystems, Foster City, USA) or by using the RNeasy kit® (QIAGEN Sciences Inc., Germantown, Maryland, USA) including on-column DNase treatment by using the respective manufacturer’s protocol and reagents. Concentration of total RNA was determined on a NanoDrop™ ND-100 Spectrophotometer (Saveen Werner, Lögstrup, Sweden). The RNA templates were transferred to cDNA by reverse transcription by using the High-Capacity cDNA Reverse Transcription Kit (Applied Biosystems, Foster City, USA) according to the manufacturer’s protocol. Mouse ATP-binding cassette subfamily A member 1 (Abca1) was analyzed by using the forward primer 5′-[…]-3′, reverse primer 5′-[…]-3′, and the dual-labeled probe 5′-6FAM-[…]-TAMRA-3′. Mouse ribosomal protein large P0 (Rplp0, 36b4) was analyzed by using the forward primer 5′-[…]-3′, reverse primer 5′-[…]-3′, and the FAM-labeled probe 5′-[…]-TAMRA-3′. In the study with BMS-852907, RT-qPCR reactions were carried out in separate triplicate wells for Abca1 and Rplp0, respectively, by using 20 ng of cDNA template, 385 nM of the above-mentioned primers, and iQ™ SYBR Green Supermix (Bio-Rad, Hercules, California, USA) on a Bio-Rad MyiQ instrument (Bio-Rad, Hercules, California, USA). In the other studies, 400 nM Abca1 forward and reverse primers, 200 nM Abca1 probe, 200 nM Rplp0 forward and reverse primers, and 100 nM Rplp0 probe were mixed with 15 ng of cDNA template and TaqMan™ Gene Expression Master Mix (Applied Biosystems, Foster City, USA). The RT-qPCR reactions were performed on a 7500 Real-time PCR system (Applied Biosystems, Foster City, USA). Cycle threshold values (Ct) were retrieved from the instrument software. Relative changes in mRNA expression were calculated by using the comparative cycle method (2^−ΔΔCt). […]
# [3] = po, read-out: Abca1 mRNA induction in intestine Attributed class
# [4] = oral gavage daily for 4 days, C57BL/6 mice, (% RSE), read-out: Abca1 mRNA induction in intestine ED50
SMILES,TG induction in plasma m (scaling factor) (plasma triglycerides [1]),TG induction in plasma Attributed class (plasma triglycerides [1]),"TG induction in plasma C2, drug concentration corresponding to a twofold increase in TG levels (plasma triglycerides [1])",increase of plasma triglyceride levels (plasma triglycerides [2]) [%],ED50 (Abca1 mRNA in intestine; [3]) [µmol/kg],ED50 (Abca1 mRNA in intestine; [4]) [µmol/kg],class of intestinal Abca1 induction (Abca1 mRNA in intestine)
CC(C)(C)N1C(=O)C(Nc2ccc(N3CCCCC3)cc2)=C(c2ccccc2)S1(=O)=O [AZ876],3.44 (49),Lipogenic,0.269 (93) μM,110,≤ 11.3,0.956,–
"O=C(O)Cc1ccc(COc2cccc(-c3c(Cc4ccccc4)cnc4c(C(F)(F)F)cccc34)c2)cc1 [WAY-254011, reference compound]",1.94 (4),Lipogenic,0.794 (8) μM,–,≤ 11.3,< 30,high ABCA1
